Measurements published in patent publication US12612387B2, “RAS inhibitors and methods of using the same” (Jazz Pharmaceuticals Ireland Limited, priority 2020, dated 2026).

Tests used:
K-RAS G12D = biological target: T1, K-RAS G12D (Homo sapiens, UniProt P01116, G12D); assay: Compound depletion assay, K-RAS G12D; format: binding; details: G12D protein 20 μM, compound 8 μM, 25° C.
T1 construct: His tag; purchased Stratech
Method: (§1) Compound Depletion Assay Method
(§2) Lyophilized human K-RAS (12 Cys) protein (His tag) and human K-RAS (12 Asp) protein (His tag) were purchased from Stratech and reconstituted at 30 μM in water. The protein concentration of K-RAS G12C and K-RAS G12D was adjusted to 20 μM in K-RAS Assay Buffer (20 mM HEPES pH 7.5, 150 mM NaCl, 1 mM MgCl2). A 49 μl aliquot of protein solution was transferred to 1.5 ml eppendorfs and incubated at room temperature for 10 minutes. A 1 μl aliquot of compound solution in DMSO was added to the protein solutions in the 1.5 ml eppendorfs to initiate the reaction, with a final assay compound concentration of 8 μM. Reactions were agitated at 25° C., 700 rpm. At each time point (0, 30, 180, 360, 1440 minutes), 10 μl of the reaction mixture was removed, added to 30 μl quench solution (0.3% formic acid, 75 nM propranolol in acetonitrile) to stop the reaction and stored at 4° C. Once all reactions were quenched, the samples were centrifuged at 16000 g for 10 minutes to pellet the protein and salts. A 10 μl aliquot of supernatant containing compound was diluted in 50:50 acetonitrile:H2O in a 96 well plate. The plates were heat sealed and the samples analysed by LC-MS/MS to determine the concentration of compound remaining in the samples. To determine the reaction progress, the compound signal was normalized to the internal standard signal (propranolol). The decrease in free compound concentration is shown as a percentage over time, with the […] at time zero fixed at one hundred percent. Compound is assumed to be completely depleted when no longer detectable with a double blank sample as reference.

K-RAS G12C = biological target: T2, K-RAS G12C (Homo sapiens, UniProt P01116, G12C); assay: Compound depletion assay, K-RAS G12C; format: binding; details: G12C protein 20 μM, compound 8 μM, 25° C.
T2 construct: His tag; purchased Stratech
T2 sequence (P01116 1-188 isoform P01116-2 G12C): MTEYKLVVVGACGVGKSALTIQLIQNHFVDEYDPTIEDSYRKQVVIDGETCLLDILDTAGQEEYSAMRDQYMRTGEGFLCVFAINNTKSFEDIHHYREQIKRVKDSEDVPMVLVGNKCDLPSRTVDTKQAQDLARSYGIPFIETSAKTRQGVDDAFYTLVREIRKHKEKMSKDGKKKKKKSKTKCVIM
Method: as §1, §2

T1 sequence (P01116 1-188 isoform P01116-2 G12D): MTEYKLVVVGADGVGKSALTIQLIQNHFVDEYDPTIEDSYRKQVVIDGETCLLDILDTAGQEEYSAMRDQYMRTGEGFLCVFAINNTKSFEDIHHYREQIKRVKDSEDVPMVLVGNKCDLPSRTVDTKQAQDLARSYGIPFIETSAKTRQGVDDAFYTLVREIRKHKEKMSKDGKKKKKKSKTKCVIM

Structure (SMILES)	3 hr Category (compound remaining at timepoint) (K-RAS G12D)	24 hr Category (compound remaining at timepoint) (K-RAS G12D)	3 hr Category (compound remaining at timepoint) (K-RAS G12C)	24 hr Category (compound remaining at timepoint) (K-RAS G12C)	30 min Category (compound remaining at timepoint) (K-RAS G12D)	6 hr Category (compound remaining at timepoint) (K-RAS G12D)	30 min Category (compound remaining at timepoint) (K-RAS G12C)	6 hr Category (compound remaining at timepoint) (K-RAS G12C)
C=CC(=O)N1CCN(c2cc(C(=O)Nc3c(C)ccc4ncccc34)nc(OC[C@@H]3CCCN3C)n2)CC1 [Example 19, 2-[[(2S)-1-methylpyrrolidin-2-yl]methoxy]-N-(6-methyl-5-quinolyl)-6-(4-prop-2-enoylpiperazin-1-yl)pyrimidine-4-carboxamide]	A (≥70% compound remaining at timepoint)	A (≥70% compound remaining at timepoint)	A (≥70% compound remaining at timepoint)	A (≥70% compound remaining at timepoint)				
C=CC(=O)N1CCN(c2cc(C(=O)Nc3cccc4ccccc34)nc(N3CCN(C)CC3)n2)CC1 [Example 20, 2-(4-methylpiperazin-1-yl)-N-(1-naphthyl)-6-(4-prop-2-enoylpiperazin-1-yl)pyrimidine-4-carboxamide]	A (≥70% compound remaining at timepoint)	A (≥70% compound remaining at timepoint)	A (≥70% compound remaining at timepoint)	A (≥70% compound remaining at timepoint)				
C=CC(=O)N1CCN(c2cc(C(=O)Nc3cccc4ccccc34)nc(N(C)CCN(C)C)n2)CC1 [Example 21, 2-[2-(dimethylamino)ethyl-methyl-amino]-N-(1-naphthyl)-6-(4-prop-2-enoylpiperazin-1-yl)pyrimidine-4-carboxamide]	A (≥70% compound remaining at timepoint)	A (≥70% compound remaining at timepoint)	A (≥70% compound remaining at timepoint)	A (≥70% compound remaining at timepoint)				
C=CC(=O)N1CCN(c2cc(C(=O)Nc3cccc4[nH]ncc34)nc(OC[C@@H]3CCCN3C)n2)CC1 [Example 22, N-(1H-indazol-4-yl)-2-[[(2S)-1-methylpyrrolidin-2-yl]methoxy]-6-(4-prop-2-enoylpiperazin-1-yl)pyrimidine-4-carboxamide]	A (≥70% compound remaining at timepoint)	A (≥70% compound remaining at timepoint)	A (≥70% compound remaining at timepoint)	A (≥70% compound remaining at timepoint)				
C=CC(=O)N1C[C@@H]2C[C@H]1CN2c1cc(C(=O)Nc2cc(O)cc3ccccc23)nc(OC[C@@H]2CCCN2C)n1 [Example 23, N-(3-hydroxy-1-naphthyl)-2-[[(2S)-1-methylpyrrolidin-2-yl]methoxy]-6-[(1S,4S)-2-prop-2-enoyl-2,5-diazabicyclo[2.2.1]heptan-5-yl]pyrimidine-4-carboxamide]	A (≥70% compound remaining at timepoint)		A (≥70% compound remaining at timepoint)		A (≥70% compound remaining at timepoint)	A (≥70% compound remaining at timepoint)	A (≥70% compound remaining at timepoint)	A (≥70% compound remaining at timepoint)
C=CC(=O)N1CCN(c2cc(C(=O)Nc3cc(O)cc4ccccc34)nc(-c3ccccc3)n2)C[C@@H]1CC#N [Example 24, 6-[(3S)-3-(cyanomethyl)-4-prop-2-enoyl-piperazin-1-yl]-N-(3-hydroxy-1-naphthyl)-2-phenyl-pyrimidine-4-carboxamide]	A (≥70% compound remaining at timepoint)		A (≥70% compound remaining at timepoint)		A (≥70% compound remaining at timepoint)	A (≥70% compound remaining at timepoint)	A (≥70% compound remaining at timepoint)	A (≥70% compound remaining at timepoint)
C=CC(=O)N1CCN(c2cc(C(=O)Nc3cc(O)cc4ccccc34)nc(-c3cccnc3)n2)C[C@@H]1CC#N [Example 25, 6-[(3S)-3-(cyanomethyl)-4-prop-2-enoyl-piperazin-1-yl]-N-(3-hydroxy-1-naphthyl)-2-(3-pyridyl)pyrimidine-4-carboxamide]	A (≥70% compound remaining at timepoint)		A (≥70% compound remaining at timepoint)		A (≥70% compound remaining at timepoint)	A (≥70% compound remaining at timepoint)	A (≥70% compound remaining at timepoint)	A (≥70% compound remaining at timepoint)
C=CC(=O)N1CCN(c2cc(C(=O)Nc3cc(O)cc4ccccc34)nc(-c3ccncc3)n2)C[C@@H]1CC#N [Example 26, 6-[(3S)-3-(cyanomethyl)-4-prop-2-enoyl-piperazin-1-yl]-N-(3-hydroxy-1-naphthyl)-2-(4-pyridyl)pyrimidine-4-carboxamide]	A (≥70% compound remaining at timepoint)		A (≥70% compound remaining at timepoint)		A (≥70% compound remaining at timepoint)	A (≥70% compound remaining at timepoint)	A (≥70% compound remaining at timepoint)	A (≥70% compound remaining at timepoint)
C=CC(=O)N1CCN(c2cc(C(=O)Nc3cc(O)cc4ccccc34)nc(NCCN3CCN(C)CC3)n2)C[C@@H]1CC#N [Example 27, 6-[(3S)-3-(cyanomethyl)-4-prop-2-enoyl-piperazin-1-yl]-N-(3-hydroxy-1-naphthyl)-2-[2-(4-methylpiperazin-1-yl)ethylamino]pyrimidine-4-carboxamide]	A (≥70% compound remaining at timepoint)		B (30%-70% compound remaining at timepoint)		A (≥70% compound remaining at timepoint)	A (≥70% compound remaining at timepoint)	A (≥70% compound remaining at timepoint)	C (≤30% compound remaining at timepoint)
C=CC(=O)N1CCN(c2cc(C(=O)Nc3cc(O)cc4ccccc34)nc(NCCN3CCOCC3)n2)C[C@@H]1CC#N [Example 28, 6-[(3S)-3-(cyanomethyl)-4-prop-2-enoyl-piperazin-1-yl]-N-(3-hydroxy-1-naphthyl)-2-(2-morpholinoethylamino)pyrimidine-4-carboxamide]	A (≥70% compound remaining at timepoint)		A (≥70% compound remaining at timepoint)		A (≥70% compound remaining at timepoint)	A (≥70% compound remaining at timepoint)	A (≥70% compound remaining at timepoint)	B (30%-70% compound remaining at timepoint)
C=CC(=O)N1CCN(c2cc(C(=O)Nc3cc(O)cc4ccccc34)nc(NCCN(C)C)n2)C[C@@H]1CC#N [Example 29, 6-[(3S)-3-(cyanomethyl)-4-prop-2-enoyl-piperazin-1-yl]-2-[2-(dimethylamino)ethylamino]-N-(3-hydroxy-1-naphthyl)pyrimidine-4-carboxamide]	A (≥70% compound remaining at timepoint)		B (30%-70% compound remaining at timepoint)		A (≥70% compound remaining at timepoint)	A (≥70% compound remaining at timepoint)	A (≥70% compound remaining at timepoint)	C (≤30% compound remaining at timepoint)
